The source of these data is patent US9040663B2, “Melanocortin receptor-specific peptides” (AstraZeneca AB, priority 2009, dated 2015).

Where two headings read alike, the source gives them in different places. Positions of bridges follow the written chain, without caps; N, C: chain ends. Non-standard residues stand in square brackets, D forms with d. Residues, ends and D or L forms follow the SMILES beside them. dPhe(4-CN) = N#Cc1ccc(C[C@@H](N)C(=O)O)cc1; Orn = NCCC[C@H](N)C(=O)O

Assay [1] deals with T1, hMC4-R (Homo sapiens (Human), UniProt P32245). The experiment in a line: Competitive inhibition binding assay using [I125]-NDP-α-MSH, hMC4-R. The note with it: membranes of HEK-293 cells expressing recombinant hMC4-R, read-out: MC4-R Ki.
The next assay has as its target MC1-R. Put plainly: Competitive inhibition binding assay using [I125]-NDP-α-MSH, MC1-R. The note with it: membranes of B-16 mouse melanoma cells (endogenous MC1-R), in some instances HEK-293 hMC1-R. The procedure:
7.1 Competitive Inhibition Assay using [I^125]-NDP-α-MSH.
A competitive inhibition binding assay was performed for exemplified peptides according to the invention using membrane homogenates prepared from HEK-293 cells that express recombinant hMC4-R, hMC3-R, or hMC5-R, and from B-16 mouse melanoma cells (containing endogenous MC1-R). In some instances, HEK-293 cells that express recombinant hMC1-R were employed. Assays were performed in 96 well GF/B Millipore multiscreen filtration plates (MAFB NOB10) pre-coated with 0.5% bovine serum albumin (Fraction V). Membrane homogenates were incubated with 0.2 nM (for hMC4-R) 0.4 nM (for MC3-R and MC5-R) or 0.1 nM (for mouse B16 MC1-R or hMC1-R) [I^125]-NDP-α-MSH (Perkin Elmer) and increasing concentrations of test peptides of the present invention in buffer containing 25 mM HEPES buffer (pH 7.5) with 100 mM NaCl, 2 mM CaCl2, 2 mM MgCl2, 0.3 mM 1,10-phenanthroline, and 0.2% bovine serum albumin. After incubation for 60 minutes at 37° C., the assay mixture was filtered and the membranes washed three times with ice-cold buffer. Filters were dried and counted in a gamma counter for bound radioactivity. […] Maximal specific binding (100%) was defined as the difference in radioactivity (cpm) bound to cell membranes in the absence and presence of 1 μM NDP-α-MSH. […] Each assay was conducted in triplicate and the actual mean values are described, with results less than 0% reported as 0%. Ki values for test peptides of the present invention were determined using Graph-Pad Prism® curve-fitting software.

The target in assay [2] is T1, hMC4-R. The experiment in a line: High and low density hMC4-R functional assay (cAMP, HEK293-T-REx-MC4-R cells). It counts as cell-based. The note with it: for Emax: NDP-α-MSH = 100%, read-out: Intrinsic Activity (%).
Where [3] appears, read: 0.1 ng/mL Doxycycline (low density hMC4-R system).
Where [4] appears, read: 10 ng/mL Doxycycline (high density hMC4-R system).

T1 sequence (P32245 whole entry): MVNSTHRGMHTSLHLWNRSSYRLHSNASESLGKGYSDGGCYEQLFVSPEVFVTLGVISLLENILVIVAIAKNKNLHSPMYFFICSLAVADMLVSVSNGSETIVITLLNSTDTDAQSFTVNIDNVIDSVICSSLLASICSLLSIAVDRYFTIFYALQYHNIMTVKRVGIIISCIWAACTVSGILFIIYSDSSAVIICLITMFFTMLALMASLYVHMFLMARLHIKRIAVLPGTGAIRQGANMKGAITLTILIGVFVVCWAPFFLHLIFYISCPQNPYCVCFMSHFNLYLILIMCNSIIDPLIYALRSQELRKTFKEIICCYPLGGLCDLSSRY

Regarding `CC(=O)N[C@H](CCCNC(=N)N)C(=O)N[C@H]1CCCNC(=O)CC[C@@H](C(N)=O)NC(=O)[C@H](Cc2c[nH]c3ccccc23)NC(=O)[C@H](CCCNC(=N)N)NC(=O)[C@@H](Cc2cccc(Cl)c2)NC(=O)[C@H](Cc2c[nH]cn2)NC1=O` [Example 51, Ac-D-Arg-cyclo(Orn-His-D-Phe(3-Cl)-Arg-Trp-Glu)-NH2], the Ki on hMC4-R [1] stood at 0.6 nM; on MC1-R, 3 nM. For the same molecule, the EC50 amounted to 0.64 nM at hMC4-R [2] (setting [3]) and 0.4 nM at hMC4-R [2] (setting [4]). In addition, the Emax on hMC4-R [2] (setting [3]) came out at 22%; at hMC4-R [2] (setting [4]) it was 95%.
`CC(=O)N[C@@H](CCCNC(=N)N)C(=O)N[C@H]1CCC(=O)NCCC[C@@H](C(N)=O)NC(=O)[C@H](Cc2c[nH]c3ccccc23)NC(=O)[C@H](CCCNC(=N)N)NC(=O)[C@@H](Cc2ccccc2C(F)(F)F)NC(=O)[C@H](CCN)NC1=O` [Example 13, Ac-Arg-cyclo(Glu-Dab-D-Phe(2-CF3)-Arg-Trp-Orn)-NH2]: the Ki on hMC4-R [1] is 0.6 nM; on MC1-R it was 3 nM. Also, the EC50 on hMC4-R [2] (setting [3]) came to 0.125 nM; on hMC4-R [2] (setting [4]), 0.06 nM. Further, the Emax at hMC4-R [2] (setting [3]) stood at 85%; on hMC4-R [2] (setting [4]) it was 96%.
Regarding `CC(=O)N[C@@H](CCCNC(=N)N)C(=O)N[C@H]1CCC(=O)NCCC[C@@H](C(N)=O)NC(=O)[C@H](Cc2c[nH]c3ccccc23)NC(=O)[C@H](CCCNC(=N)N)NC(=O)[C@@H](Cc2ccc(C#N)cc2)NC(=O)[C@H](CO)NC1=O` [Example 45, Ac-Arg-cyclo(Glu-Ser-D-Phe(4-CN)-Arg-Trp-Orn)-NH2], the values for the Ki at hMC4-R [1] and at MC1-R were 10 nM and 10000 nM, respectively. Besides, the Emax at hMC4-R [2] (setting [3]) turned out to be 12%; at hMC4-R [2] (setting [4]), 87%. Moreover, the EC50 on hMC4-R [2] (setting [4]) came out at 0.45 nM.
In the case of `CC(=O)N[C@@H](CCCNC(=N)N)C(=O)N[C@H]1CCC(=O)NCCC[C@@H](C(N)=O)NC(=O)[C@H](Cc2c[nH]c3ccccc23)NC(=O)[C@H](CCCNC(=N)N)NC(=O)[C@@H](Cc2ccccc2Cl)NC(=O)[C@@H]2C[C@@H](O)CN2C1=O` [Example 33, Ac-Arg-cyclo(Glu-Hyp-D-Phe(2-Cl)-Arg-Trp-Orn)-NH2], the Ki at hMC4-R [1] turned out to be 1 nM; on MC1-R it was 143 nM. In addition, the EC50 at hMC4-R [2] (setting [3]) amounted to 1 nM; on hMC4-R [2] (setting [4]), 0.153 nM. The Emax was determined as 41% at hMC4-R [2] (setting [3]) and 98% at hMC4-R [2] (setting [4]).
Turning to `CC(=O)N[C@@H](CCCNC(=N)N)C(=O)N[C@H]1CCCNC(=O)CC[C@@H](C(N)=O)NC(=O)[C@H](Cc2c[nH]c3ccccc23)NC(=O)[C@H](CCCNC(=N)N)NC(=O)[C@@H](Cc2ccccc2C)NC(=O)[C@H](CC(N)=O)NC1=O` [Example 74, Ac-Arg-cyclo(Orn-Asn-D-Phe(2-Me)-Arg-Trp-Glu)-NH2], the Ki on hMC4-R [1] came out at 5 nM; on MC1-R it was 405 nM. In addition, the values for the Emax on hMC4-R [2] (setting [3]) and on hMC4-R [2] (setting [4]) were 68% and 100%, respectively.
For the molecule `CC(=O)N[C@H](CCCNC(=N)N)C(=O)N[C@H]1CCCNC(=O)CC[C@@H](C(N)=O)NC(=O)[C@H](Cc2c[nH]c3ccccc23)NC(=O)[C@H](CCCNC(=N)N)NC(=O)[C@@H](Cc2ccc(F)cc2)NC(=O)[C@H](Cc2c[nH]cn2)NC1=O` [Example 57, Ac-D-Arg-cyclo(Orn-His-D-Phe(4-F)-Arg-Trp-Glu)-NH2], the Ki was determined as 0.65 nM on hMC4-R [1] and 1 nM on MC1-R. The EC50 worked out at 0.25 nM on hMC4-R [2] (setting [3]) and 0.095 nM on hMC4-R [2] (setting [4]). The figures for the Emax at hMC4-R [2] (setting [3]) and on hMC4-R [2] (setting [4]) were 89% and 100%, respectively.
`CC(=O)N[C@@H](CCCNC(=N)N)C(=O)N[C@H]1CCC(=O)NCCC[C@@H](C(N)=O)NC(=O)[C@H](Cc2c[nH]c3ccccc23)NC(=O)[C@H](CCCNC(=N)N)NC(=O)[C@@H](Cc2ccc(Cl)cc2)NC(=O)[C@H](CCN)NC1=O` [Example 3, Ac-Arg-cyclo(Glu-Dab-D-Phe(4-Cl)-Arg-Trp-Orn)-NH2]: the Ki worked out at 0.08 nM on hMC4-R [1] and 0.3 nM on MC1-R. The EC50 on hMC4-R [2] (setting [3]) turned out to be 0.07 nM; at hMC4-R [2] (setting [4]), 0.16 nM. Also, the results for the Emax at hMC4-R [2] (setting [3]) and at hMC4-R [2] (setting [4]) were 28% and 100%, respectively.
Turning to `CC(=O)N[C@@H](CCCNC(=N)N)C(=O)N[C@H]1CCC(=O)NCCC[C@@H](C(=O)O)NC(=O)[C@H](Cc2c[nH]c3ccccc23)NC(=O)[C@H](CCCNC(=N)N)NC(=O)[C@@H](Cc2ccccc2Cl)NC(=O)[C@H](CCCN)NC1=O` [Example 49, Ac-Arg-cyclo(Glu-Orn-D-Phe(2-Cl)-Arg-Trp-Orn)-OH], the Ki at hMC4-R [1] and at MC1-R was 8 nM throughout. In addition, the EC50 at hMC4-R [2] (setting [3]) amounted to 2 nM; at hMC4-R [2] (setting [4]) it was 0.235 nM. Further, the Emax at hMC4-R [2] (setting [3]) was determined as 74%; on hMC4-R [2] (setting [4]), 93%.
Take `CC(=O)N[C@@H](CCCNC(=N)N)C(=O)N[C@H]1CCC(=O)NCCC[C@@H](C(N)=O)NC(=O)[C@H](Cc2c[nH]c3ccccc23)NC(=O)[C@H](CCCNC(=N)N)NC(=O)[C@@H](Cc2ccccc2Cl)NC(=O)[C@H]([C@@H](C)O)NC1=O` [Example 32, Ac-Arg-cyclo(Glu-Thr-D-Phe(2-Cl)-Arg-Trp-Orn)-NH2]: the Ki on hMC4-R [1] stood at 11 nM; at MC1-R it was 540 nM. In addition, on hMC4-R [2] (setting [3]), the EC50 was 18 nM. Besides, the Emax at hMC4-R [2] (setting [3]) was found to be 34%; on hMC4-R [2] (setting [4]), 96%.
With `CC(=O)N[C@@H](CCCNC(=N)N)C(=O)N[C@H]1CCC(=O)NCCC[C@@H](C(N)=O)NC(=O)[C@H](Cc2c[nH]c3ccccc23)NC(=O)[C@H](CCCNC(=N)N)NC(=O)[C@@H](Cc2ccccc2F)NC(=O)[C@@H]2C[C@@H](O)CN2C1=O` [Example 64, Ac-Arg-cyclo(Glu-Hyp-D-Phe(2-F)-Arg-Trp-Orn)-NH2], the Ki at hMC4-R [1] turned out to be 3 nM; at MC1-R, 53 nM. Moreover, the values for the EC50 at hMC4-R [2] (setting [3]) and on hMC4-R [2] (setting [4]) were 1 nM and 0.08 nM, respectively. Also, the Emax on hMC4-R [2] (setting [3]) is 57%; on hMC4-R [2] (setting [4]), 90%.
`CC(=O)N[C@@H](CCCNC(=N)N)C(=O)N[C@H]1CCC(=O)NCCC[C@@H](C(N)=O)NC(=O)[C@H](Cc2c[nH]c3ccccc23)NC(=O)[C@H](CCCNC(=N)N)NC(=O)[C@@H](Cc2ccc(F)cc2)NC(=O)[C@H](CCN)NC1=O` [Example 11, Ac-Arg-cyclo(Glu-Dab-D-Phe(4-F)-Arg-Trp-Orn)-NH2]: the Ki was 0.25 nM on hMC4-R [1] and 0.5 nM on MC1-R. For the same molecule, the EC50 on hMC4-R [2] (setting [3]) came out at 0.065 nM; on hMC4-R [2] (setting [4]), 0.06 nM. Also, the results for the Emax on hMC4-R [2] (setting [3]) and on hMC4-R [2] (setting [4]) were 83% and 90%, respectively.
On to `CC(=O)N[C@@H](CCCNC(=N)N)C(=O)N[C@H]1CCC(=O)NCCC[C@@H](C(N)=O)NC(=O)[C@H](Cc2c[nH]c3ccccc23)NC(=O)[C@H](CCCNC(=N)N)NC(=O)[C@@H](Cc2ccccc2C)NC(=O)[C@H](CCC(N)=O)NC1=O` [Example 110, Ac-Arg-cyclo(Glu-Gln-D-Phe(2-Me)-Arg-Trp-Orn)-NH2], for which the results for the Ki on hMC4-R [1] and at MC1-R were 5 nM and 105 nM, respectively. Besides, the EC50 is 0.6 nM on hMC4-R [2] (setting [3]) and 0.06 nM at hMC4-R [2] (setting [4]). The figures for the Emax at hMC4-R [2] (setting [3]) and on hMC4-R [2] (setting [4]) were 84% and 105%, respectively.
As for `CC(=O)N[C@@H](CCCNC(=N)N)C(=O)N[C@H]1CCC(=O)NCCC[C@@H](C(=O)O)NC(=O)[C@H](Cc2c[nH]c3ccccc23)NC(=O)[C@H](CCCNC(=N)N)NC(=O)[C@@H](Cc2ccc(C#N)cc2)NC(=O)[C@H](CC(=O)O)NC1=O` [Example 107, Ac-Arg-cyclo(Glu-Asp-D-Phe(4-CN)-Arg-Trp-Orn)-OH] (Ac-RED[dPhe(4-CN)]RW[Orn]-OH; lactam 2-7), at MC1-R, the Ki is 10000 nM. Also, the figures for the Emax on hMC4-R [2] (setting [3]) and at hMC4-R [2] (setting [4]) were 4% and 64%, respectively.
Molecule `CC(=O)N[C@@H](CCCNC(=N)N)C(=O)N[C@H]1CCC(=O)NCCC[C@@H](C(N)=O)NC(=O)[C@H](Cc2c[nH]c3ccccc23)NC(=O)[C@H](CCCNC(=N)N)NC(=O)[C@@H](Cc2ccccc2F)NC(=O)[C@H](CO)NC1=O` [Example 58, Ac-Arg-cyclo(Glu-Ser-D-Phe(2-F)-Arg-Trp-Orn)-NH2] displayed a Ki on MC1-R of 138 nM. On hMC4-R [2] (setting [3]), the EC50 is 5 nM and the Emax is 67%. Also, on hMC4-R [2] (setting [4]), the EC50 is 0.25 nM and the Emax is 100%.
`CC(=O)N[C@@H](CCCNC(=N)N)C(=O)N[C@H]1CCC(=O)NCCC[C@@H](C(N)=O)NC(=O)[C@H](Cc2c[nH]c3ccccc23)NC(=O)[C@H](CCCNC(=N)N)NC(=O)[C@@H](Cc2ccc(C#N)cc2)NC(=O)[C@H](CCC(=O)O)NC1=O` [Example 108, Ac-Arg-cyclo(Glu-Glu-D-Phe(4-CN)-Arg-Trp-Orn)-NH2] (Ac-REE[dPhe(4-CN)]RW[Orn]-NH2; lactam 2-7) yielded a Ki on MC1-R of 10000 nM. In addition, the Emax on hMC4-R [2] (setting [3]) came to 3%. At hMC4-R [2] (setting [4]), the EC50 came out at 9 nM and the Emax was 59%.
